Assay results: patent US20250236613A1, “SARM1 MODULATORS, PREPARATIONS, AND USES THEREOF” (SIRONAX LTD., priority 2021, published 2025)
pIC50: −log10 of the molar value.

The compounds below were run against SARM1 (50-724) (Homo sapiens (Human), UniProt Q6SZW1) (assay: SARM1 (50-724) enzymatic assay). Conditions: SARM1 inhibitory activity; 2 nM SARM1 (50-724), 200 μM NMN activator, 100 μM NAD+ substrate, 1 h, LC-MS/MS.
Type: biochemical
Protocol: The enzymatic assay was performed in a 384-well plate using Dulbecco's PBS buffer as the reaction buffer. Purified SARM1 (50-724) with a final concentration of 2 nM was pre-incubated with the test compound at 1% DMSO final assay concentration for 15 min at room temperature. The reaction was initiated by adding the mixture of 200 μM NMN as activator and 100 μM NAD^+ as substrate. After 1 h of incubation at room temperature, the reaction was terminated with 10 times volume of 70% acetonitrile, then centrifuged at 3800 rpm for 10 min. The samples were analyzed using LC-MS/MS after diluted to the proper concentration by 10 mM ammonium acetate (pH 9.75).

SARM1 (50-724), sequence (Q6SZW1 50-724): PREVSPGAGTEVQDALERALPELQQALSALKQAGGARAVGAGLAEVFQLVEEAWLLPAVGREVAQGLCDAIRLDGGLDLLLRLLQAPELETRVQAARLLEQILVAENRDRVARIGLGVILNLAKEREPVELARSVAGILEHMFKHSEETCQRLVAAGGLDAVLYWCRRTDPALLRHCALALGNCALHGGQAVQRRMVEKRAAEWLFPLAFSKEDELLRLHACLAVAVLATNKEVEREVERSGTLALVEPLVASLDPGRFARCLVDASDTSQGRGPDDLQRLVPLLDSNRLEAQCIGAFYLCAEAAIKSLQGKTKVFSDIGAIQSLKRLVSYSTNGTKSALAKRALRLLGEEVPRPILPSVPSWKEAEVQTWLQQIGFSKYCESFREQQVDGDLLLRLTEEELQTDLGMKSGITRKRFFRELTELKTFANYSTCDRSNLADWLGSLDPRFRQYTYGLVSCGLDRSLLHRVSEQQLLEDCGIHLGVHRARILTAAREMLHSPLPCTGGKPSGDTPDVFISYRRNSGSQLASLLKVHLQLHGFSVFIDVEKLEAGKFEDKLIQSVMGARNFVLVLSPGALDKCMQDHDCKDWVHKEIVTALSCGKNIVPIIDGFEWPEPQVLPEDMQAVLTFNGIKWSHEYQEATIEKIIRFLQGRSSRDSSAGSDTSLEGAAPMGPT

Row | pIC50 | SMILES
1 | 4.82 to 5.30 | O=c1cc(-c2cccnc2)cc[nH]1 [Compound 1, [3,4′-bipyridin]-2′(1′H)-one]
2 | > 5.30 | COc1ccncc1-c1cc[nH]c(=O)c1 [Compound 3, 4-methoxy-[3,4′-bipyridin]-2′(1′H)-one]
3 | > 5.30 | Cc1ccncc1-c1cccc(O)c1 [Compound 4, 3-(4-methylpyridin-3-yl)phenol]
4 | > 5.30 | Cc1ccncc1-c1cc(O)cc(C#N)c1 [Compound 5, 3-hydroxy-5-(4-methylpyridin-3-yl)benzonitrile]
5 | > 5.30 | Cc1ccncc1-c1ccc(CN)cc1 [Compound 8, (4-(4-methylpyridin-3-yl)phenyl)methanamine]
6 | > 5.30 | Cc1ccncc1-c1ccc(O)cc1 [Compound 9, 4-(4-methylpyridin-3-yl)phenol]
7 | 4.52 to 4.82 | Oc1cccc(-c2cccnc2)c1 [Compound 10, 3-(pyridin-3-yl)phenol]
8 | < 4.52 | Cc1ccncc1-c1ccc(O)cc1F [Compound 12, 3-fluoro-4-(4-methylpyridin-3-yl)phenol]
9 | > 5.30 | Cc1ccncc1-c1cccc(O)c1F [Compound 13, 2-fluoro-3-(4-methylpyridin-3-yl)phenol]
10 | > 5.30 | Cc1ccncc1-c1ccc(O)c(Br)c1 [Compound 15, 2-bromo-4-(4-methylpyridin-3-yl)phenol]
11 | > 5.30 | Cc1ccncc1-c1ccc(Br)c(O)c1 [Compound 17, 2-bromo-5-(4-methylpyridin-3-yl)phenol]
12 | > 5.30 | Cc1ccncc1-c1ccc2[nH]ccc2c1 [Compound 21, 5-(4-methylpyridin-3-yl)-1H-indole]
13 | 4.52 to 4.82 | Cc1ccncc1-c1ccc2cc[nH]c2c1 [Compound 23, 6-(4-methylpyridin-3-yl)-1H-indole]
14 | > 5.30 | Cc1ccncc1-c1ccc2[nH]ncc2c1 [Compound 24, 5-(4-methylpyridin-3-yl)-1H-indazole]
15 | > 5.30 | Cc1ccncc1-c1ccc2[nH]cnc2c1 [Compound 25, 5-(4-methylpyridin-3-yl)-1H-benzo[d]imidazole]
16 | < 4.52 | Cc1ccncc1-c1cccc(O)c1Cl [Compound 27, 2-chloro-3-(4methylpyridin-3-yl)phenol]
17 | < 4.52 | COc1cc(-c2cnccc2C)ccc1O [Compound 30, 2-methoxy-4-(4-methylpyridin-3-yl)phenol]
18 | > 5.30 | Cc1ccc(-c2cnccc2C)cc1O [Compound 32, 2-methyl-5-(4-methylpyridin-3-yl)phenol]
19 | < 4.52 | Cc1ccncc1-c1ccc(F)c(O)c1F [Compound 35, 2,6-difluoro-3-(4-methylpyridin-3-yl)phenol]
20 | > 5.30 | Cc1ccncc1-c1ccc2[nH]nnc2c1 [Compound 36, 5-(4-methylpyridin-3-yl)-1H-benzol[d][1,2,3]triazole]
21 | 4.52 to 4.82 | Cc1ccncc1-c1ccc(O)c(O)c1F [Compound 39, 3-fluoro-4-(4-methylpyridin-3-yl)benzene-1,2-diol]
22 | > 5.30 | Cc1ccncc1-c1ccc2[nH]c(=O)oc2c1 [Compound 40, 6-(4-methylpyridin-3-yl)benzo[d]oxazol-2(3H)-one]
23 | > 5.30 | Cc1ccncc1-c1ccc2c(c1)CC(=O)N2 [Compound 41, 5-(4-methylpyridin-3-yl)indolin-2-one]
24 | 4.82 to 5.30 | Cc1ccncc1-c1ccc(O)c(N)c1 [Compound 43, 2-amino-4-(4-methylpyridin-3-yl)phenol]
25 | < 4.52 | Cc1ccncc1-c1ccc2c(c1)CNC(=O)N2 [Compound 46, 6-(4-methylpyridin-3-yl)-3,4-dihydroquinazolin-2(1H)-one]
26 | > 5.30 | Cc1ccncc1-c1ccc(O)c(O)c1 [Compound 47, 4-(4-methylpyridin-3-yl)benzene-1,2-diol]
27 | 4.82 to 5.30 | Cc1ccncc1-c1ccc2[nH]ncc2n1 [Compound 50, 5-(4-methylpyridin-3-yl)-1H-pyrazolo[4,3-b]pyridine]

Further lines, the compound ahead of its results:

Row | SMILES | pIC50
28 | Cc1ccncc1-c1cc[nH]c(=O)c1 [Compound 2, 4-methyl-[3,4′-bipyridin]-2′(1′H)-one] | > 5.30
29 | Cc1ccncc1-c1ccc(O)c(C#N)c1 [Compound 6, 2-hydroxy-5-(4-methylpyridin-3-yl)benzonitrile] | > 5.30
30 | Cc1ccncc1-c1cccc(S(N)(=O)=O)c1 [Compound 7, 3-(4-methylpyridin-3-yl)benzenesulfonamide] | > 5.30
31 | Cc1ccncc1-c1ccc(O)c(F)c1 [Compound 11, 2-fluoro-4-(4-methylpyridin-3-yl)phenol] | < 4.52
32 | Cc1ccncc1-c1cc(O)ccc1F [Compound 14, 4-fluoro-3-(4-methylpyridin-3-yl)phenol] | < 4.52
33 | Cc1ccncc1-c1cc(O)cc(Br)c1 [Compound 16, 3-bromo-5-(4-methylpyridin-3-yl)phenol] | > 5.30
34 | Cc1ccncc1-c1ccc2c(c1)C(=O)NCC2 [Compound 18, 7-(4-methylpyridin-3-yl)-3,4-dihydroisoquinolin-1(2H)-one] | 4.52 to 4.82
35 | Cc1ccncc1-c1ccc(F)c(O)c1 [Compound 19, 2-fluoro-5-(4-methylpyridin-3-yl)phenol] | 4.82 to 5.30
36 | Cc1ccncc1-c1cc(O)cc(F)c1 [Compound 20, 3-fluoro-5-(4-methylpyridin-3-yl)phenol] | > 5.30
37 | Cc1ccncc1-c1cccc(O)c1C [Compound 26, 2-methyl-3-(4-methylpyridin-3-yl)phenol] | < 4.52
38 | Cc1cc(-c2cnccc2C)ccc1O [Compound 28, 2-methyl-4-(4-methylpyridin-3-yl)phenol] | > 5.30
39 | CCc1cc(-c2cnccc2C)ccc1O [Compound 29, 2-ethyl-4-(4-methylpyridin-3-yl)phenol] | > 5.30
40 | Cc1ccncc1-c1ccc(O)c(Cl)c1 [Compound 31, 2-chloro-4-(4-methylpyridin-3-yl)phenol] | > 5.30
41 | Cc1ccncc1-c1ccc2c(c1)CCN2 [Compound 33, 5-(4-methylpyridin-3-yl)indoline] | 4.52 to 4.82
42 | Cc1ccncc1-c1cc2cc[nH]c2cc1F [Compound 34, 6-fluoro-5-(4-methylpyridin-3-yl)-1H-indole] | < 4.52
43 | Cc1ccncc1-c1ccc2c(c1F)NC(=O)C2=O [Compound 37, 7-fluoro-6-(4-methylpyridin-3-yl)indoline-2,3-dione] | 4.82 to 5.30
44 | CC(=O)c1ccc(-c2cnccc2C)cc1O [Compound 38, 1-(2-hydroxy-4-(4-methylpyridin-3-yl)phenyl)ethan-1-one] | 4.82 to 5.30
45 | Cc1ccncc1-c1ccc(N)c(O)c1 [Compound 42, 2-amino-5-(4-methylpyridin-3-yl)phenol] | > 5.30
46 | Cc1ccncc1-c1ccc2[nH]c(=O)[nH]c2c1 [Compound 44, 5-(4-methylpyridin-3-yl)-1,3-dihydro-2H-benzo[d]imidazol-2-one] | > 5.30
47 | Cc1ccncc1-c1ccc2c(c1)OCC(=O)N2 [Compound 45, 7-(4-methylpyridin-3-yl)-2H-benzo[b][1,4]oxazin-3(4H)-one] | 4.82 to 5.30
48 | Cc1ccncc1-c1cnc2[nH]ncc2c1 [Compound 48, 5-(4-methylpyridin-3-yl)-1H-pyrazolo[3,4-b]pyridine] | 4.52 to 4.82
49 | Cc1ccncc1-c1cc2cn[nH]c2cn1 [Compound 49, 5-(4-methylpyridin-3-yl)-1H-pyrazolo[3,4-c]pyridine] | < 4.52
